In patent US10457679B2, “Imidazo[4,5-c]quinolin-2-one compounds and their use in treating cancer” (AstraZeneca AB, priority 2015, dated 2019):

Legend:
Assay type in all cases: cell-based
ATR kinase = target: T1, ATR kinase (Homo sapiens, UniProt Q13535); test: Assay b) ATR cellular potency (pChk1 Ser345 in HT29 cells after 4NQO); details: HT29 cells, 4NQO, pChk1 Ser345; may be geometric mean of several tests; read-out: Assay b) ATR Cell IC50
T1 construct: measuring a decrease in phosphorylation of Chk1 (Ser 345) in HT29 cells; endogenous in cells; host or cells: HT29 cells (ECACC #85061109)
From the text: Assay b): ATR Cellular Potency
ATR is a PI 3-kinase-related kinase which phosphorylates multiple substrates on serine or threonine residues in response to DNA damage during or replication blocks. Chk1, a downstream protein kinase of ATR, plays a key role in DNA damage checkpoint control. Activation of Chk1 involves phosphorylation of Ser317 and Ser345 (the latter regarded as the preferential target for phosphorylation/activation by ATR).
The following morning compound of Formula (I) in 100% DMSO were added to assay plates by acoustic dispensing. After 1 h incubation at 37° C. and 5% CO2. 40 nl of 3 mM 4NQO in 100% DMSO was added to all wells by acoustic dispensing, except minimum control wells which were left untreated with 4NQO to generate a null response control. Plates were returned to the incubator for a further 1 h. […] Then 20 μl of 0.1% Triton X100 in PBS was added and incubated for 10 minutes at r.t., to permeabalise cells. Then the plates were washed once with 50 μl/well PBS, using a Biotek EL405 plate washer.
After 2 h incubation at r.t., the plates were washed three times with 50 μl/well PBS, using a Biotek EL405 plate washer, and plates were then sealed with black plate seals until read. Plates were read using an ArrayScan VTI instrument, using an XF53 filter with 10× objective.

ATM kinase = target: T2, ATM kinase (Homo sapiens, UniProt Q13315); test: Assay a) ATM cellular potency (pATM Ser1981 in X-ray irradiated HT29 cells); details: HT29 cells, 1 h compound, X-ray ~600 cGy, pATM Ser1981; may be geometric mean of several tests; read-out: Assay a) ATM Cell IC50
T2 construct: endogenous in cells; host or cells: HT29 cells (ECACC #85061109)
Protocol: The following assays were used to measure the effects of the compounds of the present invention: a) ATM cellular potency assay; b) PI3K cellular potency assay; c) mTOR cellular potency assay; d) ATR cellular potency assay. During the description of the assays, generally: • i. […] IC50 values were calculated using a smart fitting model in Genedata. […] Assay a): ATM Cellular Potency Rationale:
Most ATM molecules in the cell are rapidly phosphorylated on this site after doses of radiation as low as 0.5 Gy, and binding of a phosphospecific antibody is detectable after the introduction of only a few DNA double-strand breaks in the cell.
The rationale of the pATM assay is to identify inhibitors of ATM in cells. HT29 cells are incubated with test compounds for 1 hr prior to X-ray-irradiation. 1 h later the cells are fixed and stained for pATM (Ser1981). The fluorescence is read on the arrayscan imaging platform.
The following morning compounds of Formula (I) in 100% DMSO were added to assay plates by acoustic dispensing. After 1 h incubation at 37° C. and 5% CO2, plates (up to 6 at a time) were irradiated using the X-RAD 320 instrument (PXi) with equivalent to ˜600 cGy. Plates were returned to the incubator for a further 1 h. […] Then 20 μl of 0.1% Triton X100 in PBS was added and incubated for 20 minutes at r.t., to permeabalise cells. Then the plates were washed once with 50 μl/well PBS, using a Biotek EL405 plate washer.
After 1 h incubation at r.t., the plates were washed three times with 50 μl/well PBS, using a Biotek EL405 plate washer, and plates were sealed and kept in PBS at 4° C. until read. Plates were read using an ArrayScan VTI instrument, using an XF53 filter with 10× objective.

PI3K-α = PI3K-α (Homo sapiens, UniProt P42336); test: Assay c) PI3K cellular potency (phospho-Akt T308 ELISA in BT474 cells); details: BT474 cells, 2 h, phospho-AKT T308; may be geometric mean of several tests; read-out: Assay c) PI3Kα Cell IC50
From the text: Assay c): PI3K Cellular Potency
This assay was used to measure PI3K-α inhibition in cells. PDK1 was identified as the upstream activation loop kinase of protein kinase B (Akt 1), which is essential for the activation of PKB. Activation of the lipid kinase phosphoinositide 3 kinase (PI3K) is critical for the activation of PKB by PDK1.
Following ligand stimulation of receptor tyrosine kinases, PI3K is activated, which converts PIP2 to PIP3, which is bound by the PH domain of PDK1 resulting in recruitment of PDK1 to the plasma membrane where it phosphorylates AKT at Thr308 in the activation loop.
The aim of this cell-based mode of action assay is to identify compounds that inhibit PDK activity or recruitment of PDK1 to membrane by inhibiting PI3K activity. Phosphorylation of phospho-Akt (T308) in BT474c cells following treatment with compounds for 2 h is a direct measure of PDK1 and indirect measure of PI3K activity.
BT474 cells (human breast ductal carcinoma, ATCC HTB-20) were seeded into black 384 well plates (Costar, #3712) at a density of 5600 cells/well in DMEM containing 10% FBS and 1% glutamine and allowed to adhere overnight.
The following morning compounds in 100% DMSO were added to assay plates by acoustic dispensing. After a 2 h incubation at 37° C. and 5% CO2, the medium was aspirated and the cells were lysed with a buffer containing 25 mM Tris, 3 mM EDTA, 3 mM EGTA, 50 mM sodium fluoride, 2 mM Sodium orthovanadate, 0.27M sucrose, 10 mM β-glycerophosphate, 5 mM sodium pyrophosphate, 0.5% Triton X-100 and complete protease inhibitor cocktail tablets (Roche #04 693 116 001, used 1 tab per 50 ml lysis buffer).
After 20 minutes, the cell lysates were transferred into ELISA plates (Greiner #781077) which had been pre-coated with an anti total-AKT antibody in PBS buffer and non-specific binding was blocked with 1% BSA in PBS containing 0.05% Tween 20. Plates were incubated over night at 4° C. The next day the plates were washed with PBS buffer containing 0.05% Tween 20 and further incubated with a mouse monoclonal anti-phospho AKT T308 for 2 h. Plates were washed again as above before addition of a horse anti-mouse-HRP conjugated secondary antibody. Following a 2 h incubation at r.t., plates were washed and QuantaBlu substrate working solution (Thermo Scientific #15169, prepared according to provider's instructions) was added to each well. The developed fluorescent product was stopped after 60 minutes by addition of Stop solution to the wells. Plates were read using a Tecan Safire plate reader using 325 nm excitation and 420 nm emission wavelengths respectively. Except where specified, reagents contained in the Path Scan Phospho AKT (Thr308) sandwich ELISA kit from Cell Signalling (#7144) were used in this ELISA assay.

T2 sequence (Q13315 whole entry): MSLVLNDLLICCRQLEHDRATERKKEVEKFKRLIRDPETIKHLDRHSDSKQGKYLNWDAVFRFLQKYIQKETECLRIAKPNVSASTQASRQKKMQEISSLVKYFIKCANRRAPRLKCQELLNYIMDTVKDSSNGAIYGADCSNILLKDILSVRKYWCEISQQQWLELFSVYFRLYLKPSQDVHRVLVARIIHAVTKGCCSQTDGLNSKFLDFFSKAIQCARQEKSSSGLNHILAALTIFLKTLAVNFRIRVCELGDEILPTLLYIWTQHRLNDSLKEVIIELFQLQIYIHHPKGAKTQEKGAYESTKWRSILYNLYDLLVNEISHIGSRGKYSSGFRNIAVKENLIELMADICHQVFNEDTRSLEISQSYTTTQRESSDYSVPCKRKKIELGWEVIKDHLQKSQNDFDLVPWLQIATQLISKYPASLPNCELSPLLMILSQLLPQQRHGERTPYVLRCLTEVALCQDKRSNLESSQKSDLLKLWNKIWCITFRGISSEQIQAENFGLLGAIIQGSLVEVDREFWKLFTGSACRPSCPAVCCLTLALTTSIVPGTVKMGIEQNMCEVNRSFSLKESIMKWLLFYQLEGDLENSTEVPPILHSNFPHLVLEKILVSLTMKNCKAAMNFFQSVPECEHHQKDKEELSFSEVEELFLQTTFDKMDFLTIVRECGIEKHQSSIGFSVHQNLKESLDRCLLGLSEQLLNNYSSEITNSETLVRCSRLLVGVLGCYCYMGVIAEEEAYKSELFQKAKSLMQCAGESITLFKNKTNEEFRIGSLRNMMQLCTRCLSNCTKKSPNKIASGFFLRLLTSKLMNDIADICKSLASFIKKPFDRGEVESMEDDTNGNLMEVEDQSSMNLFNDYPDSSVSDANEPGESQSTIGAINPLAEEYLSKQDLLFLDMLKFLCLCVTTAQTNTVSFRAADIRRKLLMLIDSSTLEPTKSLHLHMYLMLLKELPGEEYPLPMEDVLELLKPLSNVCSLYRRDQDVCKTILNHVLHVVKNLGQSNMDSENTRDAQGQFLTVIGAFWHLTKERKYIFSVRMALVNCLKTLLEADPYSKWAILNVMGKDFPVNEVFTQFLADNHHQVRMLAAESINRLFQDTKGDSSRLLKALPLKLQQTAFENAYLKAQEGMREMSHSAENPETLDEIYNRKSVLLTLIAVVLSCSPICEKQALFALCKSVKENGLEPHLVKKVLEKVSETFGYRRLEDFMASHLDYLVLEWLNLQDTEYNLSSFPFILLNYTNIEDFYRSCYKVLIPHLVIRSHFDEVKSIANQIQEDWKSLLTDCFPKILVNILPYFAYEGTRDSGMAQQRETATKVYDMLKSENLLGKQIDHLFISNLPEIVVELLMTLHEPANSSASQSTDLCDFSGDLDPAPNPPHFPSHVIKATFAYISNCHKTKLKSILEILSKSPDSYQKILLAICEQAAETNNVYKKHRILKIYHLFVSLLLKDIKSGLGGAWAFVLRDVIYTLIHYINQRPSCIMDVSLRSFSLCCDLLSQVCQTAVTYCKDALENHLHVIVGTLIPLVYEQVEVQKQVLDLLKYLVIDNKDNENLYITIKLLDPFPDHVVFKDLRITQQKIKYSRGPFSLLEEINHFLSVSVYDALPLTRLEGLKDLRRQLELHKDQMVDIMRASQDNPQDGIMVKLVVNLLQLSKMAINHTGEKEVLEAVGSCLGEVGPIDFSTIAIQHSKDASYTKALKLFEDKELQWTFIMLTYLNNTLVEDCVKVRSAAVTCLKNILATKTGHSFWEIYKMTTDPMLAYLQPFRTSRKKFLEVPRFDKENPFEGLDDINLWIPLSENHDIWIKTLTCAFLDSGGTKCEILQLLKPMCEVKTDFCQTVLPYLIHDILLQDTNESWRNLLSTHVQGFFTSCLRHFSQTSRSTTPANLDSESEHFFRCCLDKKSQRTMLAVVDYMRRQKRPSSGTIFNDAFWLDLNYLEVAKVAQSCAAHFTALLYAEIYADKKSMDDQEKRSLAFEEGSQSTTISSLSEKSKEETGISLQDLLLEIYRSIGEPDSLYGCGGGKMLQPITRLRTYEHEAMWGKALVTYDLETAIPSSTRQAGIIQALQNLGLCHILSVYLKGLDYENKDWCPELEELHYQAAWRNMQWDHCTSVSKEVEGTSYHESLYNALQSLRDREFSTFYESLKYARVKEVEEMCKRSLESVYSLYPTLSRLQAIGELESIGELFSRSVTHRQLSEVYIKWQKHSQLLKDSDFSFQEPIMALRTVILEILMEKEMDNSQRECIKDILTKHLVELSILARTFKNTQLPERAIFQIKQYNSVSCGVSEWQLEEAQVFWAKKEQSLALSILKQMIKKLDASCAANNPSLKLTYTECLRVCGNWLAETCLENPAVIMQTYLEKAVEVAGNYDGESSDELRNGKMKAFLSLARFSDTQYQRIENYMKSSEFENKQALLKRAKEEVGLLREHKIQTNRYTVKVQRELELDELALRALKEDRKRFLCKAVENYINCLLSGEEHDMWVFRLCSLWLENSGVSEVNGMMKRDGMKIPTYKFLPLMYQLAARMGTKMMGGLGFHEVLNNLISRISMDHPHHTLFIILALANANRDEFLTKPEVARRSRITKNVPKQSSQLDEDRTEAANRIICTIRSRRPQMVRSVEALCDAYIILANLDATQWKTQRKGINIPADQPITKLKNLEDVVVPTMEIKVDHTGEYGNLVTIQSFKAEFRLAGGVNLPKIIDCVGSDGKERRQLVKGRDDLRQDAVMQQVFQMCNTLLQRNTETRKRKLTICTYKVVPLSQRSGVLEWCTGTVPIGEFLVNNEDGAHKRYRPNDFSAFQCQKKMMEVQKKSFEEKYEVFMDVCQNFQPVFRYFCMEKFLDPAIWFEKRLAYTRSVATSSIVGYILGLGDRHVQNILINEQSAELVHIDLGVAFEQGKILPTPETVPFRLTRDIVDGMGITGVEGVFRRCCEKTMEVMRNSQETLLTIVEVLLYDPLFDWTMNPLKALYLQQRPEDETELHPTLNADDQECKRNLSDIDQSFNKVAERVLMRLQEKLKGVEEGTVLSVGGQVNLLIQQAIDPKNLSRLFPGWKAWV
PI3K-α, sequence (P42336 whole entry): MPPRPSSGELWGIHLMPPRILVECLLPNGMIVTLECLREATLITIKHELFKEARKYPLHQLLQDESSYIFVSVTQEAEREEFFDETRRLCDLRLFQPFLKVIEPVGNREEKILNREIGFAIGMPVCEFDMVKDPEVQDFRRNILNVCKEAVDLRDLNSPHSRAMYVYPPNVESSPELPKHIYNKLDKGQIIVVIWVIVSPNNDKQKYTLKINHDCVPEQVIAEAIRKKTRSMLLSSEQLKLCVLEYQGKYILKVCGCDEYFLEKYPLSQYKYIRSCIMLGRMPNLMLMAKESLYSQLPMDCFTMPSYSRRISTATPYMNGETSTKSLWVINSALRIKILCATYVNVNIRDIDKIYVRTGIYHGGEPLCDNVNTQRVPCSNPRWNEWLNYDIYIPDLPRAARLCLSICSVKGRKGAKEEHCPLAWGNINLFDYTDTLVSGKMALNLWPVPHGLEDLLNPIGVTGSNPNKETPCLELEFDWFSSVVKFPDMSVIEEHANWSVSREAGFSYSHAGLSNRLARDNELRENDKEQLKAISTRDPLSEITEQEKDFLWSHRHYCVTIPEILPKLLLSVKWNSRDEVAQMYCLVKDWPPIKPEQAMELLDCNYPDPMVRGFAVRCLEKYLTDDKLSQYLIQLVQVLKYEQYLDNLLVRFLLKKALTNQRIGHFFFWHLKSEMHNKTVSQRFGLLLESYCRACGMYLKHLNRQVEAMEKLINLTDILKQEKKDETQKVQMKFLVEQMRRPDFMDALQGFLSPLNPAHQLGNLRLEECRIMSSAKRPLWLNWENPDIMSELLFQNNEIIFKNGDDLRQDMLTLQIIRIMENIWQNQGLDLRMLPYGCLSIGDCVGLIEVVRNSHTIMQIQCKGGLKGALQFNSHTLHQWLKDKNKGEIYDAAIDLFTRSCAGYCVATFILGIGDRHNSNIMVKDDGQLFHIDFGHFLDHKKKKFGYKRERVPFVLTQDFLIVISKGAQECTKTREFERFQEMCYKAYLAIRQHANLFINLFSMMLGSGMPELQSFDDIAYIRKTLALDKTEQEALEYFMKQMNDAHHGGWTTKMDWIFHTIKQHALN

Compound	IC50 (ATR kinase) [µM]	IC50 (ATM kinase) [µM]	IC50 (PI3K-α) [µM]
CC(C)n1c(=O)n(C)c2cnc3ccc(-c4ccc(OCCCN(C)C)nc4)cc3c21 [Example 6, 8-[6-[3-(dimethylamino)propoxy]-3-pyridyl]-1-isopropyl-3-methyl-imidazo[4,5-c]quinolin-2-one]	> 20.7	0.000398	0.184
CC(C)n1c(=O)n(C)c2cnc3ccc(-c4ccc(OCCCN5CCCC5)nc4)cc3c21 [Example 7, 1-isopropyl-3-methyl-8-[6-(3-pyrrolidin-1-ylpropoxy)-3-pyridyl]imidazo[4,5-c]quinolin-2-one]	> 30	0.000256	0.222
CC(C)n1c(=O)n(C)c2cnc3ccc(-c4ccc(OCCCN5CCCC5)nc4F)cc3c21 [Example 12, 8-[2-fluoro-6-(3-pyrrolidin-1-ylpropoxy)-3-pyridyl]-1-isopropyl-3-methyl-imidazo[4,5-c]quinolin-2-one]	> 30	0.000799	2.89
CC(C)n1c(=O)n(C)c2cnc3cc(F)c(-c4ccc(OCCCN5CCCC5)nc4)cc3c21 [Example 3, 7-Fluoro-1-isopropyl-3-methyl-8-[6-(3-pyrrolidin-1-ylpropoxy)-3-pyridyl]imidazo[4,5-c]quinolin-2-one]	> 30	0.000824	11.4
CC(C)n1c(=O)n(C)c2cnc3cc(F)c(-c4ccc(OCCCN5CCCCC5)nc4F)cc3c21 [Example 14, 7-fluoro-8-[2-fluoro-6-[3-(1-piperidyl)propoxy]-3-pyridyl]-1-isopropyl-3-methyl-imidazo[4,5-c]quinolin-2-one]	> 30	0.00351	> 30
CC(C)n1c(=O)n(C)c2cnc3cc(F)c(-c4ccc(OCCCN5CCCC5)nc4F)cc3c21 [Example 13, 7-fluoro-8-[2-fluoro-6-(3-pyrrolidin-1-ylpropoxy)-3-pyridyl]-1-isopropyl-3-methyl-imidazo[4,5-c]quinolin-2-one]	> 30	0.00132	22.9
CC(C)n1c(=O)n(C)c2cnc3ccc(-c4ccc(OCCCN5CCCCC5)nc4F)cc3c21 [Example 9, 8-[2-Fluoro-6-[3-(1-piperidyl)propoxy]-3-pyridyl]-1-isopropyl-3-methyl-imidazo[4,5-c]quinolin-2-one]	> 30	< 0.000453	5.75
CC(C)n1c(=O)n(C)c2cnc3cc(F)c(-c4ccc(OCCC[N+]5([O-])CCCCC5)nc4)cc3c21 [Metabolite A, 7-Fluoro-1-isopropyl-3-methyl-8-[6-[3-(1-oxidopiperidin-1-ium-1-yl)propoxy]-3-pyridyl]imidazo[4,5-c]quinolin-2-one]	9.41	0.035	27.8
CC(C)n1c(=O)n(C)c2cnc3cc(F)c(-c4ccc(OCCCN5CCC5)nc4)cc3c21 [Example 4, 8-[6-[3-(azetidin-1-yl)propoxy]-3-pyridyl]-7-fluoro-1-isopropyl-3-methyl-imidazo[4,5-c]quinolin-2-one]	> 30	0.00159	4.52
CC(C)n1c(=O)n(C)c2cnc3ccc(-c4ccc(OCCCN5CCC5)nc4)cc3c21 [Example 8, 8-[6-[3-(Azetidin-1-yl)propoxy]-3-pyridyl]-1-isopropyl-3-methyl-imidazo[4,5-c]quinolin-2-one]	–	0.000698	0.661
CC(C)n1c(=O)n(C)c2cnc3cc(F)c(-c4ccc(OCCCN5CCCCC5)nc4)cc3c21 [Example 2, 7-Fluoro-1-isopropyl-3-methyl-8-[6-[3-(1-piperidyl)propoxy]-3-pyridyl]imidazo[4,5-c]quinolin-2-one]	> 30	0.000787	> 12
CC(C)n1c(=O)n(C)c2cnc3ccc(-c4ccc(OCCCN(C)C)nc4F)cc3c21 [Example 10, 8-[6-[3-(dimethylamino)propoxy]-2-fluoro-3-pyridyl]-1-isopropyl-3-methyl-imidazo[4,5-c]quinolin-2-one]	> 30	0.000686	6.18
CC(C)n1c(=O)n(C)c2cnc3cc(F)c(-c4ccc(OCCCN5CCC5)nc4F)cc3c21 [Example 16, 8-[6-[3-(azetidin-1-yl)propoxy]-2-fluoro-3-pyridyl]-7-fluoro-1-isopropyl-3-methyl-imidazo[4,5-c]quinolin-2-one]	> 30	0.00229	9.08
CC(C)n1c(=O)[nH]c2cnc3cc(F)c(-c4ccc(OCCCN5CCCCC5)nc4)cc3c21 [Example 18, 7-Fluoro-1-isopropyl-8-[6-[3-(1-piperidyl)propoxy]-3-pyridyl]-3H-imidazo[4,5-c]quinolin-2-one]	> 30	0.00314	> 30
